Data taken from US8058475B2, “Substituted cyclohexylmethyl compounds” (Gruenenthal GmbH, priority 2005, dated 2011).
Counter-ions that a name gives are not always drawn. Like-named read-outs stand apart in the source and are kept apart here.

Experiments:
human μ-opiate receptor = human μ-opiate receptor (Homo sapiens, UniProt P35372); experiment: Affinity for the human μ-opiate receptor ([3H]-naloxone displacement, SPA, CHO-K1 membrane preparation); format: binding; conditions: for inhibition at 1 µM: read-out: μ-Opioid receptor, % inhibition [1 μM]; for Ki: read-out: μ-Opioid receptor, Ki
[1] = target: T1, Noradrenaline (NA) reuptake (Rattus norvegicus, UniProt Q63380); experiment: Noradrenaline (NA) reuptake inhibition in rat brain synaptosomes (hypothalamus, P2 fraction); format: biochemical
T1 construct: synaptosomes are freshly isolated from areas of rat brain; from tissue; host or cells: rat hypothalamus synaptosomes (P2 fraction)
How it was run: (§1)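 Freshly isolated rat brain synaptosomes (P2 fraction, Gray–Whittaker method) used for uptake; for NA uptake the particles came from hypothalamus of male rats.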

Serotonin (5HT) reuptake = target: T2, Serotonin (5HT) reuptake (Rattus norvegicus, UniProt P31652); experiment: Serotonin (5HT) reuptake inhibition in rat brain synaptosomes (P2 fraction); format: biochemical; conditions: for inhibition at 10 µM: read-out: Serotonin reuptake, % inhibition [10 μM]
T2 construct: synaptosomes are freshly isolated from areas of rat brain; from tissue; host or cells: rat brain synaptosomes (P2 fraction)
How it was run: as §1

mouse = experiment: In vivo studies of analgesia: tail-flick test in the mouse; conditions: iv, read-out: Activity % MPE; for % maximum possible antinociceptive effect at 21.5 mg/kg: dose 21.5 mg/kg (i.v.); for % maximum possible antinociceptive effect at 10 mg/kg: dose 10 mg/kg (i.v.)
Description: In vivo Studies of Analgesia: Tail-flick Test in the Mouse
The mice were each placed individually into a test cage and the base of the tail was exposed to the focused heat ray of an electric lamp (tail-flick type 50/08/1.bc, Labtec, Dr. Hess). The intensity of the lamp was adjusted so that the time from switching on of the lamp to the sudden twitching away of the tail (latency of pain) in untreated mice was from 3 to 5 seconds. Before administration of the solutions comprising the compound according to the invention, or of the particular comparison solutions, the mice were pre-tested twice in the course of five minutes and the mean of these measurements was calculated as the pre-test mean.
The solutions of the compound of the general formula I according to the invention and the comparison solutions were then administered intravenously.
Pain measurement was carried out in each case 10, 20, 40 and 60 minutes following the intravenous administration. The analgesic activity was determined as the increase in the latency of pain (% of the maximum possible antinociceptive effect) according to the following formula: [(T1−T0)/(T2−T0)]×100 where time T0 is the latency before administration, time T1 is the latency after administration of the active ingredient combination and time T2 is the maximum exposure time (12 seconds).
The in-depth study of analgesic activity was carried out in the tail-flick test in the mouse, as described above.

[2] = read-out: Na reuptake, % inhibition [10 μM]
[3] = 1 μM test substance, inhibition of specific [3H]-naloxone binding
[4] = read-out: NA reuptake, % inhibition [10 μM]

T1 sequence (Q63380 1-617): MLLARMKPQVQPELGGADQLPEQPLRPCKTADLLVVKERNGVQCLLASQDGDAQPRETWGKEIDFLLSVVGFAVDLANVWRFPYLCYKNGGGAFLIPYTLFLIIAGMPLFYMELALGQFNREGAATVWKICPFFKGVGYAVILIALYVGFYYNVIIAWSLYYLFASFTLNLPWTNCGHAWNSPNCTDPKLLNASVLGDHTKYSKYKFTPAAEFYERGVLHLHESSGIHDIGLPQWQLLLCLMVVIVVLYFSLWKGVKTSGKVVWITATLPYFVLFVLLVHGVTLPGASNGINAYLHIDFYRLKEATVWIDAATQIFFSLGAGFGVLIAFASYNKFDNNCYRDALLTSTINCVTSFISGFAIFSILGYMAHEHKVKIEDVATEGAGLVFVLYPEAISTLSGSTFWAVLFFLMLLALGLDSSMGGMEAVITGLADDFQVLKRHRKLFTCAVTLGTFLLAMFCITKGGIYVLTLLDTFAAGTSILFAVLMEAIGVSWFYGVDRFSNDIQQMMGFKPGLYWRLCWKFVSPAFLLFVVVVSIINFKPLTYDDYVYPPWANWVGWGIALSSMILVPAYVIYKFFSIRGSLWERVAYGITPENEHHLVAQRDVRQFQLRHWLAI
T2 sequence (P31652 whole entry): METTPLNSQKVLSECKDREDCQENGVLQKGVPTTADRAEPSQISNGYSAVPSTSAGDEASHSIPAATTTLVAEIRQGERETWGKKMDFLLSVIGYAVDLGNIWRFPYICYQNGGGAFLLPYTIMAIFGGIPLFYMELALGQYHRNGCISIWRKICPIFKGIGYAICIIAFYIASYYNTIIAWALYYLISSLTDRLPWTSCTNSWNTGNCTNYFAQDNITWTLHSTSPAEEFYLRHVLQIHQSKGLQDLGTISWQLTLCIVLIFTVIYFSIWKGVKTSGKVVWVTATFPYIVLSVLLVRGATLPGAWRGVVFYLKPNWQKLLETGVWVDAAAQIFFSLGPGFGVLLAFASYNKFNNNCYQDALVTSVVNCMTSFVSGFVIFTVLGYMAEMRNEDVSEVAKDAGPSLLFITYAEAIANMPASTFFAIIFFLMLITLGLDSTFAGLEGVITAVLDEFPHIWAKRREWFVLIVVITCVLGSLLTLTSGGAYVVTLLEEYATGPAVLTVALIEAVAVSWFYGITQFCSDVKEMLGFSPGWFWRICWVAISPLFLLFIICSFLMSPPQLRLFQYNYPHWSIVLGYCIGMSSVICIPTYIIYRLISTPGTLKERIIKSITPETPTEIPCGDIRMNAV
Sequence of human μ-opiate receptor (P35372 whole entry): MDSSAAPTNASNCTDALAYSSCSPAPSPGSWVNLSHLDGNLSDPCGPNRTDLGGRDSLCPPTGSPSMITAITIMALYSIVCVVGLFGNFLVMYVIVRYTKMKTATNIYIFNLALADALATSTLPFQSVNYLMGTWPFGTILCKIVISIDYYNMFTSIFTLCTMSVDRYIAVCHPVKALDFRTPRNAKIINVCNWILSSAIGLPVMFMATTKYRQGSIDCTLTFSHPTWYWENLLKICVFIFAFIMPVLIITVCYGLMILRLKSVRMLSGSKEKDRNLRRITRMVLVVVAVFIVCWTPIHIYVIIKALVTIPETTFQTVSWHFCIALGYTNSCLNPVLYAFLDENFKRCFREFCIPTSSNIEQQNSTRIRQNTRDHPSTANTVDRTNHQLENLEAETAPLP

melting point [°C]	Compound	inhibition at 1 µM (human μ-opiate receptor) [%]	Ki (human μ-opiate receptor) [nM]	inhibition at 10 µM [1, 2] [%]	inhibition at 10 µM (Serotonin (5HT) reuptake) [%]	% maximum possible antinociceptive effect at 1 mg/kg (mouse; dose 1 mg/kg (i.v.)) [%]	inhibition at 1 µM (human μ-opiate receptor; [3]) [%]	inhibition at 10 µM [1, 4] [%]	% maximum possible antinociceptive effect at 21.5 mg/kg (mouse) [%]	Ki [1] [nM]	Ki (Serotonin (5HT) reuptake) [nM]	% maximum possible antinociceptive effect at 10 mg/kg (mouse) [%]
110 to 115	CN(C)C(c1ccccc1)C1CCC(=NO)CC1 (stereo not shown)											
	CC(=O)N(CCCc1ccccc1)C1CCC(C(c2ccccc2)N(C)C)CC1 (stereo not shown) [compound 95, N-(4-((dimethylamino)(phenyl)methyl)cyclohexyl)-N-(3-phenylpropyl)acetamide hydrochloride]	95	2.5	80	66	100						
	CN(C)C(c1ccccc1)C1CCC(NCc2ccc(F)cc2)CC1 (stereo not shown) [compound 91, 4-((dimethylamino)(phenyl)methyl)-N-(4-fluorobenzyl)cyclohexanamine hydrochloride]		8.1		76		90	93	90			
	CCCC(=O)N(Cc1ccccc1)C1CCC(C(c2ccccc2)N(C)C)CC1 (stereo not shown) [compound 102, N-benzyl-N-(4-((dimethylamino)(phenyl)methyl)cyclohexyl)butyramide hydrochloride]	94	1.5	92	85					130	450	82
118 to 121	CN(C)C(c1cccs1)C1CCC(=NO)CC1 (stereo not shown)											
	CN(C)C(c1ccccc1)C1CCC(NC(=O)NC2CCCCC2)CC1 (stereo not shown) [compound 80, 1-cyclohexyl-3-(4-((dimethylamino)(phenyl)methyl)cyclohexyl)urea]		20		97		95	97		490	250	59
	CN(C)C(c1ccccc1)[C@H]1CC[C@H](CCc2ccccc2)CC1 (relative stereo) [compound 146, trans-N,N-dimethyl(4-phenethylcyclohexyl)(phenyl)methanamine hydrochloride]				92		97	94		600	150	21
	CC(=O)N(CCCCc1ccccc1)C1CCC(C(c2ccccc2)N(C)C)CC1 (stereo not shown) [compound 98, N-(4-((dimethylamino)(phenyl)methyl)cyclohexyl)-N-(4-phenylbutyl)-acetamide hydrochloride]	104		95	74					700	630	100
	CN(C)C(c1ccccc1)C1CCC(O)(Cc2ccc(F)cc2)CC1 (stereo not shown) [compound 148, 4-((dimethylamino)(phenyl)methyl)-1-(4-fluorobenzyl)cyclohexanol hydrochloride]				90		91	97			370	40
	CN(C)C(c1ccccc1)C1CCC(NCc2ccccc2)CC1 (stereo not shown) [compound 86, N-benzyl-4-((dimethylamino)(phenyl)methyl)cyclohexanamine hydrochloride]		3.8		88		98	95	100			
	CN(C)C(c1ccccc1)C1CCC(NCCCCc2ccccc2)CC1 (stereo not shown) [compound 87, 4-((dimethylamino)(phenyl)methyl)-N-(4-phenylbutyl)cyclohexanamine hydrochloride]		3.7		95		85	106				39
	CC(Cc1c[nH]c2ccccc12)NC1CCC(C(c2ccccc2)N(C)C)CC1 (stereo not shown) [compound 88, N-(1-(1H-indol-3-yl)propan-2-yl)-4-((dimethylamino)(phenyl)methyl)-cyclohexanamine hydrochloride]		2.4		88		99	84	90			
